We go through four compounds from patent US10525055B2, “Opioid receptor antagonist prodrugs” (Nirsum Laboratories, Inc., priority 2017, dated 2020).

Data set [1] can be described thus: Dog pharmacokinetic studies, deep intramuscular. It counts as in vivo, Beagle dogs. The settings on record: dog IM, 48 mg/kg, Sesame oil + 1% Benzyl Alcohol. How it is done: The purpose of this study is to determine the pharmacokinetics of test compounds in plasma, following deep intramuscular administration to Beagle dogs (n=3, unless otherwise specified).
(§1) The dose formulation (concentration−400 mg base equivalents/ml in sesame oil+1% benzyl alcohol, unless otherwise specified) was administered via deep intramuscularly (unless otherwise specified). The injection vehicle was also dosed via deep intramuscular route (unless otherwise specified) on contralateral site of each animal at study initiation. The animals were sedated with Propofol at 6 mg/kg via IV administration. Following sedation hair was carefully removed from around the injection site and the area gently cleaned. Care will be taken to avoid irritating skin during shaving and cleaning the injection site. Then dogs will be dosed with deep IM administration. At least 2.5 cm depth from the surface into the central aspect of the quadriceps or biceps femoris muscle, by angling the needle toward the femur. If the needle hits the femur, simply draws back slightly and then inject. The dose volume will be determined by the animals' body weight collected on the morning of dosing day. For repeated administration, the injection sites may be rotated to minimize tissue injury.
Blood samples were collected from a peripheral vessel from restrained, non-sedated animals per sampling time point.
Approximately 0.8 mL blood will be collected at each time point.
Each collected blood sample was centrifuged for 4 minutes at 4° C. and 10000 rpm for plasma collection. Plasma was collected and transferred into a pre-labeled PP tube in dry ice at each time point and precipitated immediately using ACN at a ratio of 1:4 (plasma:ACN). Centrifuged again (10 minutes, 12000 rpm) and obtain the supernatant.
After terminal collection, all supernatant was stored at approximately −80° C. F until bioanalysis.
LC-MS/MS methods for the quantitative determination of test compound in biological matrix were developed. […] The sample analysis was performed concurrently with a set of calibration standards and two sets of QC samples using the LC-MS/MS method.
Plasma concentration versus time data was analyzed by non-compartmental approaches using the Phoenix WinNonlin 6.3 software program. Cmax, Tmax, T1/2, AUC(0-t), AUC(0-inf), MRT(0-t), MRT(0-inf) and graphs of plasma concentration versus time profile were prepared.

The nature of data set [2]: Solubility determination in oil (cottonseed oil, sesame oil). The settings on record: Sesame oil; volumetric flask method; heating 60 °C, obs. 25 °C. As for the experimental part:
A known amount of test substance (˜40 mg) was weighed into the vial, 100 μL of oil was added and heated to 60° C. and then system was slurried to reach equilibrium. […] Extra oil was added into the vial once compound precipitated out and then the system was re-equilibrated at 1000 rpm at room temperature (25° C.). Final concentration was determined by HPLC method as described below in Table 6a and 6b.

Data set [3] in a line: Dog clinical observations after intramuscular dosing. It counts as in vivo, Beagle dogs. How it is done:
Weight monitoring was done every week.
as §1

Turning to `C=C1CC[C@@]2(O)C3Cc4ccc(OCOC(=O)OCCCCCCCC/C=C/CCCCCCCC)c5c4[C@@]2(CCN3CC2CC2)[C@H]1O5` [Compound 1, (((4aS,7aS,12bS)-3-(cyclopropylmethyl)-4a-hydroxy-7-methylene-2,3,4,4a,5,6,7,7a-octahydro-1H-4,12-methanobenzofuro[3,2-e]isoquinolin-9-yl)oxy)methyl ((E)-octadec-9-en-1-yl) carbonate], in data set [1], the “AUC0-inf (ng · h/mL) prodrug” value came out at 1040 ng·h/mL and the “Half-life t1/2 (hour) prodrug” value was determined as 261 h.

With `C=C1CC[C@@]2(O)C3Cc4ccc(OC(=O)OCCCCCCCCCCC)c5c4[C@@]2(CCN3CC2CC2)[C@H]1O5` [Compound 3, (4aS,7aS,12bS)-3-(cyclopropylmethyl)-4a-hydroxy-7-methylene-2,3,4,4a,5,6,7,7a-octahydro-1H-4,12-methanobenzofuro[3,2-e]isoquinolin-9-yl undecyl carbonate], in data set [1], the “AUC0-inf (ng · h/mL) prodrug” value worked out at 360 ng·h/mL and the “Half-life t1/2 (hour) prodrug” value was 63.1 h. Also, in data set [2], the “Solubility by volumetric flask method: Sesame oil” value is over 400.7 mg/mL.

For `CCCCCCCC/C=C/CCCCCCCCOC(=O)OCOc1ccc2c3c1O[C@H]1C(=O)CC[C@@]4(O)C(C2)N(CC2CC2)CC[C@]314` [Compound 7, (((4aS,7aR,12bS)-3-(cyclopropylmethyl)-4a-hydroxy-7-oxo-2,3,4,4a,5,6,7,7a-octahydro-1H-4,12-methanobenzofuro[3,2-e]isoquinolin-9-yl)oxy)methyl ((E)-octadec-9-en-1-yl) carbonate], the “AUC0-inf (ng · h/mL) prodrug” value in data set [1] turned out to be 610 ng·h/mL.

`C=C1CC[C@@]2(O)C3Cc4ccc(OCOC(=O)OCCCCCCCCCC)c5c4[C@@]2(CCN3CC2CC2)[C@H]1O5` [Compound 35, (((4aS,7aS,12bS)-3-(cyclopropylmethyl)-4a-hydroxy-7-methylene-2,3,4,4a,5,6,7,7a-octahydro-1H-4,12-methanobenzofuro[3,2-e]isoquinolin-9-yl)oxy)methyl decyl carbonate]: the “Clinical observations, R-TA” value in data set [3] (dog D1501, 48 mg/kg, 24 hr) is listed as “Red spots at groin”; in data set [3] (dog D1501, 48 mg/kg, 48 hr) it was “Red spots at groin”. Further, the “BT (clinical observations, R-TA)” value in data set [3] (dog D1501, 48 mg/kg, 72 hr) was “at groin/BT: 39.1 °C”; in data set [3] (dog D1501, 48 mg/kg, 96 hr), “at groin/BT: 39.0 °C”; in data set [3] (dog D1501, 48 mg/kg, 120 hr) it was “at groin/BT: 39.1 °C”; in data set [3] (dog D1501, 48 mg/kg, 144 hr) it was “groin/BT: 38.7 °C”; in data set [3] (dog D1501, 48 mg/kg, 192 hr) it was “groin/BT: 38.2 °C”; in data set [3] (dog D1501, 48 mg/kg, 216 hr), “groin/BT: 38.6 °C”. The “BT (clinical observations, R-TA)” value in data set [3] (dog D1501, 48 mg/kg, 240 hr) is “groin/BT: 38.2 °C”; in data set [3] (dog D1501, 48 mg/kg, 264 hr), “groin/BT: 38.0 °C”; in data set [3] (dog D1501, 48 mg/kg, 288 hr), “groin/BT: 38.4 °C”; in data set [3] (dog D1501, 48 mg/kg, […]) it was “groin/BT: 38.9 °C”; in data set [3] (dog D1502 (third dog column), 48 mg/kg, 72 hr) it was “leg/BT: 39.3 °C”; in data set [3] (dog D1502 (third dog column), 48 mg/kg, 96 hr), “leg/BT: 39.3 °C”. In addition, the “BT (clinical observations, R-TA)” value is “BT: 39.4 °C” in data set [3] (dog D1502 (third dog column), 48 mg/kg, 120 hr); “BT: 39.0 °C” in data set [3] (dog D1502 (third dog column), 48 mg/kg, 144 hr); “at calf/BT: 39.2 °C” in data set [3] (dog D1502 (third dog column), 48 mg/kg, 192 hr); “calf/BT: 39.2 °C” in data set [3] (dog D1502 (third dog column), 48 mg/kg, 216 hr); “calf/BT: 38.9 °C” in data set [3] (dog D1502 (third dog column), 48 mg/kg, 240 hr); 6 * 6 cm/BT: 38.7 °C in data set [3] (dog D1502 (third dog column), 48 mg/kg, 264 hr). The “BT (clinical observations, R-TA)” value in data set [3] (dog D1502 (third dog column), 48 mg/kg, 288 hr) is 6 * 6 cm/BT: 38.7 °C; in data set [3] (dog D1502 (third dog column), 48 mg/kg, […]) it was “at calf/BT: 39.3 °C”; in data set [3] (dog D1502, 48 mg/kg, 72 hr), “red/BT: 39.6 °C”; in data set [3] (dog D1502, 48 mg/kg, 96 hr), “red/BT: 38.9 °C”; in data set [3] (dog D1502, 48 mg/kg, 120 hr) it was “red/BT: 39.6 °C”; in data set [3] (dog D1502, 48 mg/kg, 144 hr), “redness/BT: 38.9 °C”. In addition, the “BT (clinical observations, R-TA)” value is “BT: 38.7 °C” in data set [3] (dog D1502, 48 mg/kg, 192 hr); “BT: 39.2 °C” in data set [3] (dog D1502, 48 mg/kg, 216 hr); “BT: 38.6 °C” in data set [3] (dog D1502, 48 mg/kg, 240 hr); “BT: 38.4 °C” in data set [3] (dog D1502, 48 mg/kg, 264 hr); “BT: 38.6 °C” in data set [3] (dog D1502, 48 mg/kg, 288 hr); “redness/BT: 39.9 °C” in data set [3] (dog D1502, 48 mg/kg, […]). Further, the “Half-life t1/2 (hour) prodrug” value in data set [1] amounted to 70 h.
